Results from patent US7968097B2, “Identification of Hla-A2-presented T-cell epitopes derived from the oncofoetal antigen-immature laminin receptor protein and uses thereof” (Immatics Biotechnologies GmbH, priority 2005, dated 2011).
Several values for one entry are separate records, joined by “and”; a condition that tells them apart may be missing. Identical values can stand only once.

Legend:
[1] = system: T cells of HLA-A*0201+ patients with hematological malignancies; assay: IFN-γ ELISPOT, pooled HLA-A*0201+ AML, CLL and multiple myeloma patients; format: cell-based, human; details: 50 HLA-A*0201+ patients with hematological malignancies
Method: To determine the frequency of iLR1- and iLR2-specific T cells in HLAA*0201^+ AML, CLL and multiple myeloma patients, ELISPOT IFNI’ secretion assay (Tables 3-5) were performed.

[2] = system: CD8+ lymphocytes from peripheral blood of HLA-A2+ donors; assay: Tetramer analysis of microsphere driven expansion of peptide-specific CD8+ lymphocytes; format: cell-based, human; details: for Evaluable donors with clearly positive T-cell responses: of 5 evaluable HLA-A2+ donors, microspheres with anti-CD28 plus high density A*0201/peptide; for Evaluable stimulations with clearly positive T-cell responses: of 53 (RPS-001) or 54 (RPS-002) evaluable stimulations among all evaluable donors
Description: 1×10^6 CD8+ enriched PBMCs per well of the healthy HLA-A2+ donor HBC-065 were stimulated weekly in one well with microspheres coupled to anti-CD28 plus high density tumor antigen A*0201/RPS-001 (upper panel) or high density tumor antigen A*0201/RPS-002 (lower panel) as shown before [Walter, S, et al. Cutting Edge: Predetermined avidity of human CD8 T cells expanded on calibrated MHC/anti-CD28-coated microspheres. J. Immunol. 171(10):4974-8, 2003] with minor modifications. After three stimulations in vitro, cells of both wells were stained with antibody CD8 FITC plus tetramer A*0201/RPS-001 APC and A*0201/RPS-002 PE. Cells are gated on the lymphocyte population (left and middle panel) or on the CD8+ lymphocyte population (right panel). Numbers represent percentage of tetramer^+ within CD8+ lymphocytes. RPS-001=LLAARAIVAI (SEQ ID-No. 1); RPS-002=ALCNTDSPL (SEQ ID-No. 2)
Table 6: Summary of tetramer analysis of microsphere driven expansions of A2/RPS-001 and A2/RPS-002 specific CD8^+ lymphocytes from peripheral blood. 1×10^6 CD8^+ enriched PBMCs per well were stimulated as in FIG. 12 with microspheres coupled to anti-CD28 plus high density tumor antigen A*0201/RPS-001 or high density tumor antigen A*0201/RPS-002. Indicated are number of evaluable HLA-A2^+ donors, number of evaluable donors with at least one clearly positive response, number of evaluable stimulations among all evaluable donors and number of evaluable stimulations with clearly positive responses. RPS001=LLAARAIVAI (SEQ ID-NO: 1); RPS-002=ALCNTDSPL (SEQ ID-NO: 2)

[3] = system: PBMC from healthy donors, CD34-positive progenitor cells, bone marrow cells; assay: 51Chromium release assay, peptide-specific CTL on normal cells; format: cell-based, human; details: for recognition of bone marrow cells by peptide-specific T cells: A*02-positive donors (BM-01, -02); for recognition of CD34-positive bone-marrow-derived progenitor cells by peptide-specific T cells: A*02-positive donors (CD34-01, -02)
Description: (§1) CTL derived from healthy HLA-A*0201^+ individuals were generated using a protocol described elsewhere (Zeis M, Siegel S, Schmitz M et al. Induction of cytotoxic T lymphocytes against hematologic neoplasms by survivin RNA-transfected dendritic cells. J Immunol. 2003; 170, 5391-5397.). For the induction of autologous OFA/ILR, peptide-specific CTL obtained from patients with AML and CLL, CD8^+ T cells were separated from PBMC using immunomagnetic beads (MACS®, Miltenyi, Bergisch-Gladbach, Germany), cultured with autologous OFA/iLR peptide-pulsed fully matured DC and restimulated with autologous peptide-pulsed PBMC in the presence of IL-2 (1 ng/ml, CellConcepts, Weisskirch, Germany). After at least four weekly restimulations, CTL reactivity was determined in a conventional 4 h ^51Chromium release assay. Cold target inhibition assays and antibody blocking experiments were performed as previously described (Zeis M, Siegel S, Schmitz M et al. Induction of cytotoxic T lymphocytes against hematologic neoplasms by survivin RNA-transfected dendritic cells. J Immunol. 2003; 170, 5391-5397.).
T cells recognizing the ILR1-peptide were tested on K562 [human pro-erythroblastic leukemia cell-line, also known as chronic myelogenous leukemia (CML) cell line, which, due to extremely low levels of HLA, functions as a control for excluding NK cells as effector cells], IND (human B lymphoblastoid cell line), Karpas-422 (human B cell lymphoma), Balm-3 (human non-Burkitt B-lymphoma cell line), U266 (human multiple myeloma), REH (Human B cell precursor leukemia), MEC-1 (human chronic B cell leukemia). The same T cells were used to test autologous and allogeneic PBMC from healthy donors as controls. […] The response is not directed against allogeneic major or minor histocompatibility complex antigens. • 3. ILR1 peptide is recognized in an HLA-restricted fashion. • 4. The restriction is allele-specific (specific for A*02). Target: AML

peptide-pulsed T2 cells = assay: Lysis of peptide-pulsed T2 target cells by peptide-specific CTL (peptide titration); format: cell-based, human; details: for affinity of peptide-specific CTL to the peptide/MHC complex: peptide titration curves
[4] = system: peptide-pulsed 51Cr-labelled T2 cells; assay: Cold target inhibition assay; format: cell-based, human
Description: as §1
A cold target inhibition assay was performed. To examine whether ILR1-specific T cells lyse ILR1 peptide-pulsed T2 cells specifically and in the context of HLA-A*02, cold target inhibition assays were performed as follows: ^51Cr-labelled T2 cells were loaded with peptide in a concentration of 10 microgram peptide/10^6 T2 cells/ml. A total of 2×10^5 unlabelled, T2 cells, which had equally been loaded with the same or a control peptide, were then added in a volume of 50 microliter AIMV to 10^4 peptide-pulsed, ^51Cr-labelled T2 cells. Effector T cells specific for ILR1 were added and a ^51Cr-release assay was performed as described above.
A cold target inhibition assay was performed as described under “T2+ILR1” above.

[5] = system: PBMC of HLA-A*02 positive CLL patients; assay: IFN-γ ELISPOT, CLL patients; details: for samples with significant (>20) CTL responses against peptide: CLL patient samples, IFN-γ ELISPOT; for # of positively stained spots (IFN-γ ELISPOT): CLL patients, HLA-A*02 positive, one value per patient (table line), T cells cultured seven days with IL-2
Method: (§2) To determine the frequency of OFA/iLR peptide-specific T cells in patients, ELISPOT-assays were performed using the Interferon-γ-ELISPOT-Kit (Becton Dickinson, Heidelberg, Germany) according to manufacturer's instructions.
(§3) Prior to analysis, T cells from patients and healthy donors had been kept in culture for seven days in the presence of Interleukin-2 (IL microgram/10^6 PBMC/milliliter).

[6] = system: PBMC of HLA-A*02 positive AML patients; assay: IFN-γ ELISPOT, AML patients; details: for samples with significant (>20) CTL responses against peptide: AML patient samples, IFN-γ ELISPOT; for # of positively stained spots (IFN-γ ELISPOT): AML patients, HLA-A*02 positive, one value per patient (table line), T cells cultured seven days with IL-2
Method: as §2, §3

[7] = system: PBMC of HLA-A*02 positive healthy donors; assay: IFN-γ ELISPOT, healthy donors; details: healthy donors, HLA-A*02 positive; one value per donor (table line); T cells cultured seven days with IL-2
Method: as §2, §3

[8] = system: PBMC of HLA-A*02 positive myeloma patients; assay: IFN-γ ELISPOT, myeloma patients; details: for # of positively stained spots (IFN-γ ELISPOT): Myeloma patients, HLA-A*02 positive, one value per patient (table line), T cells cultured seven days with IL-2; for samples with significant (>20) CTL responses against peptide: myeloma patient samples, IFN-γ ELISPOT
Method: as §2, §3

[9] = hot target ILR1-peptide-pulsed T2, effectors ILR1-specific CTL, 10 microgram peptide/10^6 T2 cells/ml
[10] = hot target ILR2-peptide-pulsed T2, effectors ILR2-specific CTL

Sequence: ALCNTDSPL (listed as Homo sapiens) [ILR2]
- patients with significant levels of peptide-specific T cells [1]: 40%
- Evaluable donors with clearly positive T-cell responses [2]: 1
- Evaluable stimulations with clearly positive T-cell responses [2]: 1
- lysis of HLA-A2-negative targets and normal hematopoietic cells by peptide-specific CTL lines [3]: spared
- recognition of allogeneic and autologous PBMC from healthy donors by peptide-specific T cells [3]: not recognized
- recognition of bone marrow cells by peptide-specific T cells [3]: not recognized
- recognition of CD34-positive bone-marrow-derived progenitor cells by peptide-specific T cells [3]: not recognized
- recognition/lysis of T2 cells pulsed with the peptide (peptide-pulsed T2 cells; effectors: T cells specific for ILR2): lysed in a dose-dependent fashion
- affinity of peptide-specific CTL to the peptide/MHC complex (peptide-pulsed T2 cells): high affinity
- competition of cold targets loaded with the peptide for lysis [4, 9]: neither peptides irrelevant for ILR1-specific CTL (Survivin and ILR2), nor unloaded T2 cells, which display empty HLA-A*02 molecules on their cell surfaces, compete for lysis
- competition of cold targets loaded with the peptide for lysis [4, 10]: compete with the primary target cells
- median numbers of positively stained CTL compared to responses to Influenza Matrix recall-antigen [5]: 55%
- samples with significant (>20) CTL responses against peptide [5]: 56%
- # of positively stained spots (IFN-γ ELISPOT) [5]: 4 per 105 PBMC and 45 per 105 PBMC and 65 per 105 PBMC and 128 per 105 PBMC and 67 per 105 PBMC and 23 per 105 PBMC and 27 per 105 PBMC and 78 per 105 PBMC and 56 per 105 PBMC and 0 per 105 PBMC (5×) and 2 per 105 PBMC and 57 per 105 PBMC
- samples with significant (>20) CTL responses against peptide [6]: 47%
- # of positively stained spots (IFN-γ ELISPOT) [6]: 0 per 105 PBMC (4×) and 1 per 105 PBMC (2×) and 3 per 105 PBMC (2×) and 34 per 105 PBMC (3×) and 27 per 105 PBMC and 23 per 105 PBMC and 112 per 105 PBMC and 32 per 105 PBMC
- # of positively stained spots (IFN-γ ELISPOT) [7]: 0 per 105 PBMC (5×) and 3 per 105 PBMC (2×) and 2 per 105 PBMC and 4 per 105 PBMC (3×) and 5 per 105 PBMC (2×) and 6 per 105 PBMC and 7 per 105 PBMC
- # of positively stained spots (IFN-γ ELISPOT) [8]: 0 per 105 PBMC (4×) and 1 per 105 PBMC (2×) and 3 per 105 PBMC (2×) and 34 per 105 PBMC (3×) and 27 per 105 PBMC and 23 per 105 PBMC and 112 per 105 PBMC
- samples with significant (>20) CTL responses against peptide [8]: 43%

Sequence: LLAARAIVAI (listed as Homo sapiens) [ILR1]
- patients with significant levels of peptide-specific T cells [1]: 50%
- Evaluable donors with clearly positive T-cell responses [2]: 5
- Evaluable stimulations with clearly positive T-cell responses [2]: 29
- lysis of HLA-A2-negative targets and normal hematopoietic cells by peptide-specific CTL lines [3]: spared
- recognition of allogeneic and autologous PBMC from healthy donors by peptide-specific T cells [3]: not recognized
- recognition of bone marrow cells by peptide-specific T cells [3]: not recognized
- recognition of CD34-positive bone-marrow-derived progenitor cells by peptide-specific T cells [3]: not recognized
- recognition/lysis of T2 cells pulsed with the peptide (peptide-pulsed T2 cells; effectors: T cells specific for ILR1): lysed in a dose-dependent fashion
- affinity of peptide-specific CTL to the peptide/MHC complex (peptide-pulsed T2 cells): high affinity
- competition of cold targets loaded with the peptide for lysis [4, 9]: compete with the primary target cells
- competition of cold targets loaded with the peptide for lysis [4, 10]: neither peptides irrelevant for ILR2-specific CTL (Survivin and ILR1), nor unloaded T2 cells, which display empty HLA-A*02 molecules on their cell surfaces, compete for lysis
- median numbers of positively stained CTL compared to responses to Influenza Matrix recall-antigen [5]: 76%
- samples with significant (>20) CTL responses against peptide [5]: 60%
- # of positively stained spots (IFN-γ ELISPOT) [5]: 4 per 105 PBMC and 56 per 105 PBMC (2×) and 77 per 105 PBMC and 88 per 105 PBMC and 122 per 105 PBMC and 45 per 105 PBMC and 35 per 105 PBMC and 0 per 105 PBMC (4×) and 1 per 105 PBMC and 2 per 105 PBMC and 3 per 105 PBMC and 68 per 105 PBMC and 100 per 105 PBMC and 83 per 105 PBMC and 121 per 105 PBMC and 93 per 105 PBMC
- samples with significant (>20) CTL responses against peptide [6]: 40%
- # of positively stained spots (IFN-γ ELISPOT) [6]: 2 per 105 PBMC (3×) and 3 per 105 PBMC (2×) and 1 per 105 PBMC (2×) and 4 per 105 PBMC and 5 per 105 PBMC and 56 per 105 PBMC and 54 per 105 PBMC and 34 per 105 PBMC (2×) and 33 per 105 PBMC and 25 per 105 PBMC
- # of positively stained spots (IFN-γ ELISPOT) [7]: 0 per 105 PBMC (5×) and 3 per 105 PBMC (2×) and 2 per 105 PBMC and 4 per 105 PBMC (3×) and 5 per 105 PBMC (2×) and 6 per 105 PBMC and 7 per 105 PBMC
- # of positively stained spots (IFN-γ ELISPOT) [8]: 3 per 105 PBMC and 4 per 105 PBMC and 56 per 105 PBMC (2×) and 76 per 105 PBMC and 43 per 105 PBMC and 22 per 105 PBMC and 23 per 105 PBMC (2×) and 0 per 105 PBMC (2×) and 112 per 105 PBMC and 1 per 105 PBMC
- samples with significant (>20) CTL responses against peptide [8]: 57%
